The source of these data is paper PMC4020900 (International Journal of Nanomedicine, 2014).

Converted amounts (≈) assume the structure as drawn.

The nature of data set [1]: Stability in pH 7.4 HBSS buffer with ascorbic acid. In kind it is physicochemical. The settings on record: 100 μg/mL, 10 mM ascorbic acid, 37°C, 6 hours.
Data set [2] deals with Caco-2 cells. The experiment in a line: Stability and metabolism on incubation with Caco-2 cells. In kind it is in vitro ADME, human. The settings on record: 100 μg/mL, incubated with Caco-2 cells, pH 7.4 HBSS, 10 mM ascorbic acid, 37°C, 6 hours.
The conditions of data set [3]: stated in the introduction, method and reference not given; cited from earlier work.
Data set [4] concerns Caco-2 cells. Briefly: SRB cytotoxicity assay. The settings on record: Homo sapiens, Caco-2, 24 h, read-out: IC50 (SRB assay). In kind it is cell-based.
In data set [5] the test system is Caco-2 cells. The experiment in a line: Cellular uptake of FITC-conjugated drugs and their niosomes by Caco-2 cells. In kind it is in vitro ADME, human. As to conditions: 100 μg/mL, 37°C, 6 hours incubation, n=3.

By IC50 is commonly meant the midpoint of a concentration-inhibition curve. As for `O=C(O[C@@H]1Cc2c(O)cc(O)cc2O[C@@H]1c1cc(O)c(O)c(O)c1)c1cc(O)c(O)c(O)c1` [EGCG, (−)-epigallocatechin gallate], in data set [1], the “Drug present and unchanged” value was 86.2%. The compound also showed a Decrease of drug in the data set with Caco-2 cells [2] of 13.0%. Besides, the “Octanol/buffer partition coefficient P” value in data set [3] was 0.86±0.03. Further, in the data set with Caco-2 cells [4], the IC50 stood at 125 ± 3.3 µg/mL (≈ 272 µM). The “Uptake ± SD” value in the data set with Caco-2 cells [5] is reported as 0.90±0.14 μg/mg protein.
